Experimental data: US6472348B1, “Pyridone derivatives and herbicides” (Kumiai Chemical Industry Co., Ltd., priority 1996, dated 2002)

Experiments:
pale smartweed (Po) [1] = experiment: Test Example 2: herbicidal effects by upland field soil treatment; type: in vivo; conditions: 100 g of the active ingredient per 10 ares;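 also: grade of growth control; 5 = at least 90%; 4 = 70 to 90%; 3 = 50 to 70%; 2 = 30 to 50%; 1 = 10 to 30%; 0 = under 10%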
Description: (§1) (Test on Herbicidal Effects by Upland Field Soil Treatment)

[2] = system: common lambsquarters (Ch); experiment: as above; type: in vivo; conditions: 100 g of the active ingredient per 10 ares
Description: as §1

slender amaranth (Am) [3] = experiment: as above; type: in vivo; conditions: 100 g of the active ingredient per 10 ares
Description: as §1

rice flatsedge (Ci) = experiment: as above; type: in vivo; conditions: 100 g of the active ingredient per 10 ares;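 also: grade of growth control; 5 = at least 90%; 4 = 70 to 90%; 3 = 50 to 70%; 2 = 30 to 50%; 1 = 10 to 30%; 0 = under 10%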
Description: as §1

monochoria (Mo) = experiment: Test Example 1: herbicidal effects by paddy field soil treatment; type: in vivo; conditions: 100 g of the active ingredient per 10 ares, 21st day after the application, index 0-5 of Table 47;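 also: grade of growth control; 5 = at least 90%; 4 = 70 to 90%; 3 = 50 to 70%; 2 = 30 to 50%; 1 = 10 to 30%; 0 = under 10%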
Summary of the method: (§2)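 Herbicidal effect was scored against a graded standard 21 days after treatment. Seeds were sown in puddled, leveled paddy soil flooded to 3 cm depth, and the active ingredient was applied at 100 g per 10 ares before greenhouse culture.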

barnyardgrass (Ec) = experiment: as above; type: in vivo; conditions: 100 g of the active ingredient per 10 ares, 21st day after the application, index 0-5 of Table 47;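 also: grade of growth control; 5 = at least 90%; 4 = 70 to 90%; 3 = 50 to 70%; 2 = 30 to 50%; 1 = 10 to 30%; 0 = under 10%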
Summary of the method: as §2

bulrush (Sc) = experiment: as above; type: in vivo; conditions: 100 g of the active ingredient per 10 ares, 21st day after the application, index 0-5 of Table 47
Summary of the method: as §2

wheat (Tr) = experiment: Test Example 9: crop plant selectivity by upland field foliage treatment (wheat), phytotoxicity; conditions: dose 1.6 g ai/10a, 14th day after treatment
Summary of the method: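 Wheat and broadleaf weeds were sown together in sand-filled pots and grown for 2 weeks in a greenhouse before foliar treatment. Herbicidal effect on weeds and phytotoxicity to wheat were scored visually against set grading standards on day 14 after treatment, with plants kept in the greenhouse.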

pale smartweed (Po) [4] = experiment: Test Example 4: crop plant selectivity by upland field soil treatment (cotton), herbicidal effects; type: in vivo; design: scale not given here; conditions: evaluated 21st day after application
Summary of the method: (§3)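 Weeds and cotton, sown in sand and topped with soil, received a soil-applied treatment. Evaluation after three weeks in a greenhouse followed a standard rating scale.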

[5] = system: common lambsquarters (Ch); experiment: as above; type: in vivo; design: scale not given here; conditions: evaluated 21st day after application
Summary of the method: as §3

slender amaranth (Am) [6] = experiment: as above; type: in vivo; design: scale not given here; conditions: evaluated 21st day after application
Summary of the method: as §3

green foxtail (Se) = experiment: as above; type: in vivo; design: scale not given here; conditions: evaluated 21st day after application
Summary of the method: as §3

[7] = evaluated on the 21st day after application
[8] = 21st day after the application, index 0-5 of Table 47

CCc1cc2c(Cl)cc(F)c(-c3ccc(C(F)(F)F)n(C)c3=O)c2o1 [Compound 5-2]
2: Phytotoxicity Tr (wheat (Tr))
5: Herbicidal effects Po (pale smartweed (Po) [1]; [7]) | Herbicidal effects Ch [2, 7] | Herbicidal effects Am (slender amaranth (Am) [3]; [7]) | Herbicidal effects Ci (rice flatsedge (Ci); [7]) | Herbicidal effects Mo (monochoria (Mo)) | Herbicidal effects Ec (barnyardgrass (Ec)) | Herbicidal effects Sc (bulrush (Sc)) | Herbicidal effects Po (pale smartweed (Po) [4]; dose 6.3 g ai/10 a) | Herbicidal effects Ch ([5]; dose 6.3 g ai/10 a) | Herbicidal effects Am (slender amaranth (Am) [6]; dose 6.3 g ai/10 a) | Herbicidal effects Se (green foxtail (Se); dose 6.3 g ai/10 a)

Cn1c(C(F)(F)F)ccc(-c2cc(C#N)c(Cl)cc2F)c1=O [Compound No. 1-119, 3-(4-chloro-5-cyano-2-fluorophenyl)-1-methyl-6-trifluoromethyl-2(1H)-pyridone]
2: Phytotoxicity Tr (wheat (Tr))
5: Herbicidal effects Po (pale smartweed (Po) [1]; [8]) | Herbicidal effects Ch [2, 8] | Herbicidal effects Am (slender amaranth (Am) [3]; [8]) | Herbicidal effects Ci (rice flatsedge (Ci); [8]) | Herbicidal effects Mo (monochoria (Mo)) | Herbicidal effects Ec (barnyardgrass (Ec)) | Herbicidal effects Sc (bulrush (Sc)) | Herbicidal effects Po (pale smartweed (Po) [4]; dose 6.3 g ai/10 a) | Herbicidal effects Ch ([5]; dose 6.3 g ai/10 a) | Herbicidal effects Am (slender amaranth (Am) [6]; dose 6.3 g ai/10 a) | Herbicidal effects Se (green foxtail (Se); dose 6.3 g ai/10 a)

CCCC(=O)c1cc(-c2ccc(C(F)(F)F)n(C)c2=O)c(F)cc1Cl [Compound No. 1-194, 3-[4-chloro-2-fluoro-5-(1-oxobutyl)phenyl]-1-methyl-6-trifluoromethyl-2(1H)-pyridone]
5: Herbicidal effects Po (pale smartweed (Po) [1]; [7]) | Herbicidal effects Ch [2, 7] | Herbicidal effects Am (slender amaranth (Am) [3]; [7]) | Herbicidal effects Ci (rice flatsedge (Ci); [7]) | Herbicidal effects Mo (monochoria (Mo)) | Herbicidal effects Ec (barnyardgrass (Ec)) | Herbicidal effects Sc (bulrush (Sc)) | Herbicidal effects Po (pale smartweed (Po) [4]; dose 6.3 g ai/10 a) | Herbicidal effects Ch ([5]; dose 6.3 g ai/10 a) | Herbicidal effects Am (slender amaranth (Am) [6]; dose 6.3 g ai/10 a) | Herbicidal effects Se (green foxtail (Se); dose 6.3 g ai/10 a)
1: Phytotoxicity Tr (wheat (Tr))

Cn1c(C(F)(F)F)ccc(-c2c(F)cc(Cl)c3oc(CO)cc23)c1=O [Compound No. 4-5, 3-(7-chloro-5-fluoro-2-hydroxymethylbenzofuran-4-yl)-1-methyl-6-trifluoromethyl-2-(1H)-pyridone]
2: Phytotoxicity Tr (wheat (Tr))
5: Herbicidal effects Po (pale smartweed (Po) [1]; [7]) | Herbicidal effects Ch [2, 7] | Herbicidal effects Am (slender amaranth (Am) [3]; [7]) | Herbicidal effects Ci (rice flatsedge (Ci); [7]) | Herbicidal effects Mo (monochoria (Mo)) | Herbicidal effects Ec (barnyardgrass (Ec)) | Herbicidal effects Sc (bulrush (Sc)) | Herbicidal effects Po (pale smartweed (Po) [4]; dose 6.3 g ai/10 a) | Herbicidal effects Ch ([5]; dose 6.3 g ai/10 a) | Herbicidal effects Am (slender amaranth (Am) [6]; dose 6.3 g ai/10 a) | Herbicidal effects Se (green foxtail (Se); dose 6.3 g ai/10 a)

Cn1c(C(F)(F)F)ccc(-c2c(F)cc(Cl)c3occc23)c1=O [Compound No. 4-28, 3-(7-chloro-5-fluorobenzofuran-4-yl)-1-methyl-6-trifluoromethyl-2-(1H)-pyridone]
5: Herbicidal effects Po (pale smartweed (Po) [1]; [7]) | Herbicidal effects Ch [2, 7] | Herbicidal effects Am (slender amaranth (Am) [3]; [7]) | Herbicidal effects Ci (rice flatsedge (Ci); [7]) | Herbicidal effects Mo (monochoria (Mo)) | Herbicidal effects Ec (barnyardgrass (Ec)) | Herbicidal effects Sc (bulrush (Sc)) | Herbicidal effects Po (pale smartweed (Po) [4]; dose 1.6 g ai/10 a) | Herbicidal effects Po (pale smartweed (Po) [4]; dose 6.3 g ai/10 a) | Herbicidal effects Ch ([5]; dose 1.6 g ai/10 a) | Herbicidal effects Ch ([5]; dose 6.3 g ai/10 a) | Herbicidal effects Am (slender amaranth (Am) [6]; dose 1.6 g ai/10 a) | Herbicidal effects Am (slender amaranth (Am) [6]; dose 6.3 g ai/10 a) | Herbicidal effects Se (green foxtail (Se); dose 1.6 g ai/10 a) | Herbicidal effects Se (green foxtail (Se); dose 6.3 g ai/10 a)
2: Phytotoxicity Tr (wheat (Tr))
